Measurements published in ChEMBL document CHEMBL5034010, “Novel Cephalosporin Conjugates Display Potent and Selective Inhibition of Imipenemase-Type Metallo-β-Lactamases” (J Med Chem, 2021).
Values after ≈ are worked out from the molar mass of the structure shown. Active and inactive are the calls of the source. No cut-off for these calls is given here.

How the values were obtained:
Enterobacter cloacae [1] = experiment: Inhibition of Metallo-beta-lactamase IMP-1 in Enterobacter cloacae clinical isolate assessed as MIC for meropenem antibacterial activity at 32 ug/ml (Rvb =16 ug/ml); settings: dose 32.0 µg/ml
Enterobacter cloacae [2] = experiment: Inhibition of Metallo-beta-lactamase IMP-1 in Enterobacter cloacae clinical isolate assessed as MIC for meropenem antibacterial activity at 64 ug/ml (Rvb =16 ug/ml); settings: dose 64.0 µg/ml
Enterobacter cloacae [3] = experiment: Inhibition of Metallo-beta-lactamase IMP-1 in Enterobacter cloacae clinical isolate assessed as MIC for meropenem antibacterial activity at 128 ug/ml (Rvb =16 ug/ml); settings: dose 128.0 µg/ml
Klebsiella pneumoniae [4] = experiment: Inhibition of Metallo-beta-lactamase IMP-28 in Klebsiella pneumoniae clinical isolate assessed as MIC for meropenem antibacterial activity at 32 ug/ml (reference value: 4 ug/ml); settings: dose 32.0 µg/ml
Klebsiella pneumoniae [5] = experiment: Inhibition of Metallo-beta-lactamase IMP-28 in Klebsiella pneumoniae clinical isolate assessed as MIC for meropenem antibacterial activity at 64 ug/ml (reference value: 4 ug/ml); settings: dose 64.0 µg/ml
Klebsiella pneumoniae [6] = experiment: Inhibition of Metallo-beta-lactamase IMP-28 in Klebsiella pneumoniae clinical isolate assessed as MIC for meropenem antibacterial activity at 128 ug/ml (reference value: 4 ug/ml); settings: dose 128.0 µg/ml
Escherichia coli [7] = experiment: Inhibition of Metallo-beta-lactamase VIM-2 in Escherichia coli clinical isolate assessed as MIC for meropenem antibacterial activity at 32 ug/ml (reference value: 8 ug/ml); settings: dose 32.0 µg/ml
Escherichia coli [8] = experiment: Inhibition of Metallo-beta-lactamase VIM-2 in Escherichia coli clinical isolate assessed as MIC for meropenem antibacterial activity at 64 ug/ml (reference value: 8 ug/ml); settings: dose 64.0 µg/ml
Escherichia coli [9] = experiment: Inhibition of Metallo-beta-lactamase VIM-2 in Escherichia coli clinical isolate assessed as MIC for meropenem antibacterial activity at 128 ug/ml (reference value: 8 ug/ml); settings: dose 128.0 µg/ml
Escherichia coli [10] = experiment: Inhibition of Metallo-beta-lactamase NDM-1 in Escherichia coli clinical isolate assessed as MIC for meropenem antibacterial activity at 32 ug/ml (reference value: 64 ug/ml); settings: dose 32.0 µg/ml
Escherichia coli [11] = experiment: Inhibition of Metallo-beta-lactamase NDM-1 in Escherichia coli clinical isolate assessed as MIC for meropenem antibacterial activity at 64 ug/ml (reference value: 64 ug/ml); settings: dose 64.0 µg/ml
Escherichia coli [12] = experiment: Inhibition of Metallo-beta-lactamase NDM-1 in Escherichia coli clinical isolate assessed as MIC for meropenem antibacterial activity at 128 ug/ml (reference value: 64 ug/ml); settings: dose 128.0 µg/ml
[13] = Stability of the compound in Muller hinton broth assessed compound remaining measured after 15 hrs by HPLC analysis; type: physicochemical; settings: Mueller Hinton broth, read-out: Stability
Enterobacter cloacae [14] = experiment: Antibacterial activity against beta-lactamase IMP1 producing Enterobacter cloacae clinical isolate measured upto 128 ug/ml; type: functional, organism-based
Klebsiella pneumoniae [15] = experiment: Antibacterial activity against beta-lactamase IMP-28 producing Klebsiella pneumoniae clinical isolate measured upto 128 ug/ml; type: functional, organism-based
Escherichia coli [16] = experiment: Antibacterial activity against beta-lactamase VIM2 producing Escherichia coli clinical isolate measured upto 128 ug/ml; type: functional, organism-based
[17] = Inhibition of Enterobacter cloacae IMP-1 using nitrocefin chromogenic substrate measured after 15 to 60 min at 25 degC by microplate reader
[18] = Inhibition of Klebsiella pneumoniae beta-lactamase IMP-28 using nitrocefin chromogenic substrate measured after 15 to 60 min at 25 degC by microplate reader
[19] = Inhibition of Escherichia coli beta-lactamase NDM-1 using nitrocefin chromogenic substrate measured after 15 to 60 min at 25 degC by microplate reader
[20] = Inhibition of Escherichia coli beta-lactamase VIM-2 using nitrocefin chromogenic substrate measured after 15 to 60 min at 25 degC by microplate reader
Klebsiella pneumoniae [21] = experiment: Substrate activity at Klebsiella pneumoniae beta-lactamase IMP-28 assessed as compound hydrolysis by measuring Km by Michaelis-Menten analysis
Klebsiella pneumoniae [22] = experiment: Substrate activity at Klebsiella pneumoniae beta-lactamase IMP-28 assessed as compound hydrolysis by measuring Kcat by Michaelis-Menten analysis
Klebsiella pneumoniae [23] = experiment: Substrate activity at Klebsiella pneumoniae beta-lactamase IMP-28 assessed as compound hydrolysis by measuring Kcat/Km by Michaelis-Menten analysis
Enterobacter cloacae [24] = experiment: Inhibition of Metallo-beta-lactamase IMP-1 in Enterobacter cloacae clinical isolate assessed as fold reduction in meropenem MIC at 32 ug/ml; settings: dose 32.0 µg/ml
Enterobacter cloacae [25] = experiment: Inhibition of Metallo-beta-lactamase IMP-1 in Enterobacter cloacae clinical isolate assessed as fold reduction in meropenem MIC at 64 ug/ml; settings: dose 64.0 µg/ml
Enterobacter cloacae [26] = experiment: Inhibition of Metallo-beta-lactamase IMP-1 in Enterobacter cloacae clinical isolate assessed as fold reduction in meropenem MIC at 128 ug/ml; settings: dose 128.0 µg/ml
Klebsiella pneumoniae [27] = experiment: Inhibition of Metallo-beta-lactamase IMP-28 in Klebsiella pneumoniae clinical isolate assessed as fold reduction in meropenem MIC at 32 ug/ml; settings: dose 32.0 µg/ml
Klebsiella pneumoniae [28] = experiment: Inhibition of Metallo-beta-lactamase IMP-28 in Klebsiella pneumoniae clinical isolate assessed as fold reduction in meropenem MIC at 64 ug/ml; settings: dose 64.0 µg/ml
Klebsiella pneumoniae [29] = experiment: Inhibition of Metallo-beta-lactamase IMP-28 in Klebsiella pneumoniae clinical isolate assessed as fold reduction in meropenem MIC at 128 ug/ml; settings: dose 128.0 µg/ml
Escherichia coli [30] = experiment: Inhibition of Metallo-beta-lactamase VIM-2 in Escherichia coli clinical isolate assessed as fold reduction in meropenem MIC at 32 ug/ml; settings: dose 32.0 µg/ml
Escherichia coli [31] = experiment: Inhibition of Metallo-beta-lactamase VIM-2 in Escherichia coli clinical isolate assessed as fold reduction in meropenem MIC at 64 ug/ml; settings: dose 64.0 µg/ml
Escherichia coli [32] = experiment: Inhibition of Metallo-beta-lactamase VIM-2 in Escherichia coli clinical isolate assessed as fold reduction in meropenem MIC at 128 ug/ml; settings: dose 128.0 µg/ml
Escherichia coli [33] = experiment: Inhibition of Metallo-beta-lactamase NDM-1 in Escherichia coli clinical isolate assessed as fold reduction in meropenem MIC at 32 ug/ml; settings: dose 32.0 µg/ml
Escherichia coli [34] = experiment: Inhibition of Metallo-beta-lactamase NDM-1 in Escherichia coli clinical isolate assessed as fold reduction in meropenem MIC at 64 ug/ml; settings: dose 64.0 µg/ml
Escherichia coli [35] = experiment: Inhibition of Metallo-beta-lactamase NDM-1 in Escherichia coli clinical isolate assessed as fold reduction in meropenem MIC at 128 ug/ml; settings: dose 128.0 µg/ml
Escherichia coli [36] = experiment: Antibacterial activity against beta-lactamase NDM1 producing Escherichia coli clinical isolate measured upto 128 ug/ml; type: functional, organism-based
Escherichia coli [37] = experiment: Inhibition of Metallo-beta-lactamase NDM-1 in Escherichia coli clinical isolate assessed as MIC for meropenem antibacterial activity at 32 ug/ml (reference value: 32 ug/ml); settings: dose 32.0 µg/ml
Escherichia coli [38] = experiment: Inhibition of Metallo-beta-lactamase NDM-1 in Escherichia coli clinical isolate assessed as MIC for meropenem antibacterial activity at 64 ug/ml (reference value: 32 ug/ml); settings: dose 64.0 µg/ml
Escherichia coli [39] = experiment: Inhibition of Metallo-beta-lactamase NDM-1 in Escherichia coli clinical isolate assessed as MIC for meropenem antibacterial activity at 128 ug/ml (reference value: 32 ug/ml); settings: dose 128.0 µg/ml
Enterobacter cloacae [40] = experiment: Inhibition of Metallo-beta-lactamase IMP-1 in Enterobacter cloacae clinical isolate assessed as MIC for meropenem antibacterial activity at 32 ug/ml (reference value: 32 ug/ml); settings: dose 32.0 µg/ml
Enterobacter cloacae [41] = experiment: Inhibition of Metallo-beta-lactamase IMP-1 in Enterobacter cloacae clinical isolate assessed as MIC for meropenem antibacterial activity at 64 ug/ml (reference value: 32 ug/ml); settings: dose 64.0 µg/ml
Enterobacter cloacae [42] = experiment: Inhibition of Metallo-beta-lactamase IMP-1 in Enterobacter cloacae clinical isolate assessed as MIC for meropenem antibacterial activity at 128 ug/ml (reference value: 32 ug/ml); settings: dose 128.0 µg/ml
Escherichia coli [43] = experiment: Substrate activity at Escherichia coli beta-lactamase NDM-1 assessed as compound hydrolysis by measuring Km by Michaelis-Menten analysis
Escherichia coli [44] = experiment: Substrate activity at Escherichia coli beta-lactamase VIM-2 assessed as compound hydrolysis by measuring Km by Michaelis-Menten analysis
Escherichia coli [45] = experiment: Substrate activity at Escherichia coli beta-lactamase NDM-1 assessed as compound hydrolysis by measuring Kcat by Michaelis-Menten analysis
Escherichia coli [46] = experiment: Substrate activity at Escherichia coli beta-lactamase VIM-2 assessed as compound hydrolysis by measuring Kcat by Michaelis-Menten analysis
Escherichia coli [47] = experiment: Substrate activity at Escherichia coli beta-lactamase NDM-1 assessed as compound hydrolysis by measuring kcat/km by Michaelis-Menten analysis
Escherichia coli [48] = experiment: Substrate activity at Escherichia coli beta-lactamase VIM-2 assessed as compound hydrolysis by measuring Kcat/Km by Michaelis-Menten analysis
[49] = Stability of the compound assessed as Klebsiella pneumoniae beta-lactamase IMP-28-mediated degradation by measuring appearance of vinyl protons release measured after 120 mins by NMR spectra; type: ADME; settings: 2 h
Enterobacter cloacae [50] = experiment: Inhibition of Enterobacter cloacae Metallo-beta-lactamase IMP-1
Klebsiella pneumoniae [51] = experiment: Inhibition of Klebsiella pneumoniae beta Metallo-beta-lactamase IMP-28
[52] = Metabolic stability of the compound assessed as Klebsiella pneumoniae beta-lactamase IMP-28-mediated metabolism by (2R)-2-((R)-carboxy(2-phenylacetamido)methyl)-5-((carboxy(phenyl)methylthio)methyl)-5,6-dihydro-2H-1,3-thiazine-4-carboxylic acid by LC-MS analysis; type: ADME

## O=C(Cc1ccccc1)N[C@@H]1C(=O)N2C(C(=O)O)=C(CS[C@@H](Cc3ccccc3)C(=O)O)CS[C@H]12
Enterobacter cloacae [1]
  MIC: 8 µg/mL (≈ 15.6 µM)
Enterobacter cloacae [2]
  MIC: 8 µg/mL (≈ 15.6 µM)
Enterobacter cloacae [3]
  MIC: 4 µg/mL (≈ 7.8 µM)
Klebsiella pneumoniae [4]
  MIC: 1 µg/mL (≈ 1.95 µM)
Klebsiella pneumoniae [5]
  MIC: 0.5 µg/mL (≈ 0.975 µM)
Klebsiella pneumoniae [6]
  MIC: 0.25 µg/mL (≈ 0.488 µM)
Escherichia coli [7]
  MIC: 8 µg/mL (≈ 15.6 µM)
Escherichia coli [8]
  MIC: 8 µg/mL (≈ 15.6 µM)
Escherichia coli [9]
  MIC: 4 µg/mL (≈ 7.8 µM)
Escherichia coli [10]
  MIC: 32 µg/mL (≈ 62.4 µM)
Escherichia coli [11]
  MIC: 32 µg/mL (≈ 62.4 µM)
Escherichia coli [12]
  MIC: 16 µg/mL (≈ 31.2 µM)
[13]
  remaining at 15 h: > 95%
Enterobacter cloacae [14]
  Activity: inactive
Klebsiella pneumoniae [15]
  Activity: inactive
Escherichia coli [16]
  Activity: inactive
[17]
  IC50: 48 µM
[18]
  IC50: 30 µM
[19]
  IC50: 51 µM
[20]
  IC50: 19 µM
Klebsiella pneumoniae [21]
  Km: 175 µM
Klebsiella pneumoniae [22]
  kcat: 41 s⁻¹
Klebsiella pneumoniae [23]
  kcat/Km: 234000 M⁻¹ s⁻¹
Enterobacter cloacae [24]
  fold change (FC): 2
Enterobacter cloacae [25]
  fold change (FC): 2
Enterobacter cloacae [26]
  fold change (FC): 4
Klebsiella pneumoniae [27]
  fold change (FC): 4
Klebsiella pneumoniae [28]
  fold change (FC): 8
Klebsiella pneumoniae [29]
  fold change (FC): 16
Escherichia coli [30]
  fold change (FC): 1
Escherichia coli [31]
  fold change (FC): 1
Escherichia coli [32]
  fold change (FC): 2
Escherichia coli [33]
  fold change (FC): 2
Escherichia coli [34]
  fold change (FC): 2
Escherichia coli [35]
  fold change (FC): 4
Escherichia coli [36]
  Activity: inactive

## O=C(Cc1ccccc1)N[C@@H]1C(=O)N2C(C(=O)O)=C(CSC(C(=O)O)c3ccccc3)CS[C@H]12 (some centres not stated)
Klebsiella pneumoniae [4]
  MIC: < 0.063 µg/mL
Klebsiella pneumoniae [5]
  MIC: < 0.063 µg/mL
Klebsiella pneumoniae [6]
  MIC: < 0.063 µg/mL
Escherichia coli [7]
  MIC: 4 µg/mL (≈ 8.02 µM)
Escherichia coli [8]
  MIC: 2 µg/mL (≈ 4.01 µM)
Escherichia coli [9]
  MIC: 1 µg/mL (≈ 2.01 µM)
Escherichia coli [37]
  MIC: 16 µg/mL (≈ 32.1 µM)
Escherichia coli [38]
  MIC: 16 µg/mL (≈ 32.1 µM)
Escherichia coli [39]
  MIC: 8 µg/mL (≈ 16 µM)
Enterobacter cloacae [40]
  MIC: 1 µg/mL (≈ 2.01 µM)
Enterobacter cloacae [41]
  MIC: 0.5 µg/mL (≈ 1 µM)
Enterobacter cloacae [42]
  MIC: 0.5 µg/mL (≈ 1 µM)
[13]
  remaining at 15 h: > 95%
Enterobacter cloacae [14]
  Activity: inactive
Klebsiella pneumoniae [15]
  Activity: inactive
Escherichia coli [16]
  Activity: inactive
[17]
  IC50: 0.47 µM
[18]
  IC50: 0.46 µM
[19]
  IC50: > 100 µM
[20]
  IC50: 10 µM
Escherichia coli [43]
  Km: 14 µM
Escherichia coli [44]
  Km: 8.28 µM
Klebsiella pneumoniae [21]
  Km: 129 µM
Escherichia coli [45]
  kcat: 13.1 s⁻¹
Escherichia coli [46]
  kcat: 4.06 s⁻¹
Klebsiella pneumoniae [22]
  kcat: 0.386 s⁻¹
Escherichia coli [47]
  kcat/Km: 936000 M⁻¹ s⁻¹
Escherichia coli [48]
  kcat/Km: 490000 M⁻¹ s⁻¹
Klebsiella pneumoniae [23]
  kcat/Km: 3000 M⁻¹ s⁻¹
[49]
  Stability: Stable
Enterobacter cloacae [50]
  inhibition: Active
Klebsiella pneumoniae [51]
  inhibition: Active
Enterobacter cloacae [24]
  fold change (FC): 32
Enterobacter cloacae [25]
  fold change (FC): 64
Enterobacter cloacae [26]
  fold change (FC): 64
Klebsiella pneumoniae [27]
  fold change (FC): > 64
Klebsiella pneumoniae [28]
  fold change (FC): > 64
Klebsiella pneumoniae [29]
  fold change (FC): > 64
Escherichia coli [30]
  fold change (FC): 2
Escherichia coli [31]
  fold change (FC): 4
Escherichia coli [32]
  fold change (FC): 8
Escherichia coli [33]
  fold change (FC): 2
Escherichia coli [34]
  fold change (FC): 2
Escherichia coli [35]
  fold change (FC): 4
Escherichia coli [36]
  Activity: inactive
[52]
  Drug metabolism: Metabolite_Detected
